Reference: patent US3962282A, “Juvenile hormone mimics” (priority 1974, dated 1976)

How the values were obtained:
Format in all cases: in vivo
[1] = tested on: Tenebrio molitor pupae; assay: topical application to Tenebrio molitor pupae, maturation inhibition
Text: (§1) The compounds were applied in acetone solution at concentrations of 10 percent, 1 percent and 0.5 percent. One microliter of the acetone solution was applied to each test specimen. Ten test specimens were employed for each insect at each concentration and compared to ten acetone controls and ten zero controls. Approximately eight to ten days were required before results could be ascertained.
(§2) The insect species used in the test were Tenebrio molitor pupae; milkweed bug, fourth nymphal stage; wax moth, fifth larval stage; and Mexican bean beetle, fourth larval stage. At the completion of the test, each specimen was examined for the degree of juvenile and adult characteristics. The milkweed bug, wax moth, and Mexican bean beetle were assigned a numerical rating of 0 to 3 with 0 indicating no effect and 3 indicating the maximum effect or least adult development. Because of differences in morphology the Tenebrio rating scale was 0 to 4. In all cases a rating of 2 or higher means that the insect is incapable of reproduction. The number of specimens in each rating classification are given. In any test were the total of specimens reported is less than 10, those unreported died in some metamorphic stage. Such deaths indicate control, since the dead insects are not capable of reproducing.

[2] = tested on: milkweed bug; assay: topical application to milkweed bug, fourth nymphal stage, maturation inhibition; details: rating scale 0-3
Text: as §1, §2

[3] = tested on: wax moth; assay: topical application to wax moth, fifth larval stage, maturation inhibition
Text: as §1, §2

[4] = tested on: Mexican bean beetle; assay: topical application to Mexican bean beetle, fourth larval stage, maturation inhibition
Text: as §1, §2

[5] = 10% in acetone, 1 microliter topical, rating scale 0 (no effect) to 4 (maximum)
[6] = 10% in acetone, 1 microliter topical, rating scale 0 (no effect) to 3 (maximum)

Row | SMILES | number of specimens in rating 0 ([1]; 0.5%, rating scale 0-4) | number of specimens in rating 0 ([1]; 1%, rating scale 0-4) | number of specimens in rating 0 [1, 5] | number of specimens in rating 0 ([2]; 0.5%) | number of specimens in rating 1 ([2]; 0.5%) | number of specimens in rating 0 ([2]; 1%) | number of specimens in rating 3 ([2]; 1%) | number of specimens in rating 3 ([2]; 10%) | number of specimens in rating 0 ([3]; 0.5%, rating scale 0-3) | number of specimens in rating 0 ([3]; 1%, rating scale 0-3) | number of specimens in rating 0 [3, 6] | number of specimens in rating 0 ([4]; 0.5%, rating scale 0-3) | number of specimens in rating 0 ([4]; 1%, rating scale 0-3) | number of specimens in rating 3 ([4]; 1%, rating scale 0-3) | number of specimens in rating 0 [4, 6] | number of specimens in rating 3 ([4]; 10%, rating scale 0-3) | number of specimens in rating 4 ([1]; 10%, rating scale 0-4) | number of specimens in rating 2 ([2]; 0.5%) | number of specimens in rating 2 ([2]; 1%) | number of specimens in rating 3 ([2]; 0.5%) | also measured
1 | CC(C)=CCCC(C)=CCCc1cc2c(cc1Cl)OCO2 [9-(2-CHLORO-4,5-METHYLENEDIOXYPHENYL)-2,6-DIMETHYL-2,6-NONADIENE] | 10 specimens | 10 specimens | 10 specimens | 9 specimens | 1 specimens | 3 specimens | 6 specimens | 10 specimens | 10 specimens | 10 specimens | 8 specimens | 10 specimens | 9 specimens | 10 specimens | 7 specimens | 10 specimens |  |  |  |  | number of specimens in rating 1 ([2]; 1%): 1 specimens; number of specimens in rating 2 ([3]; 10%, rating scale 0-3): 1 specimens; number of specimens in rating 2 ([4]; 1%, rating scale 0-3): 1 specimens; number of specimens in rating 1 ([4]; 10%, rating scale 0-3): 3 specimens
2 | CCOc1cccc(CCC=C(C)CCC=C(C)C)c1 [9-(3-ethoxyphenyl)-2,6-dimethyl-2,6nonadiene] | 10 specimens | 8 specimens |  | 3 specimens | 1 specimens |  | 2 specimens | 7 specimens | 10 specimens | 10 specimens | 10 specimens | 10 specimens | 8 specimens |  | 1 specimens | 7 specimens | 4 specimens | 2 specimens | 7 specimens |  | number of specimens in rating 1 ([1]; 1%, rating scale 0-4): 2 specimens; number of specimens in rating 1 ([1]; 10%, rating scale 0-4): 1 specimens; number of specimens in rating 3 ([1]; 10%, rating scale 0-4): 5 specimens; number of specimens in rating 1 ([4]; 1%, rating scale 0-3): 2 specimens; number of specimens in rating 2 ([4]; 10%, rating scale 0-3): 2 specimens
3 | CCOC(=O)c1ccc(CC/C=C(\C)CCC=C(C)C)cc1 [ethyl trans-4-(4,8-dimethyl-3,7-nonadienyl)benzoate] | 9 specimens | 10 specimens | 3 specimens | 1 specimens |  |  | 10 specimens | 10 specimens | 10 specimens | 10 specimens | 10 specimens | 9 specimens | 10 specimens |  | 8 specimens |  |  | 3 specimens |  | 6 specimens | number of specimens in rating 1 ([1]; 10%, rating scale 0-4): 5 specimens; number of specimens in rating 2 ([1]; 10%, rating scale 0-4): 1 specimens; number of specimens in rating 3 ([1]; 10%, rating scale 0-4): 1 specimens; number of specimens in rating 2 ([4]; 10%, rating scale 0-3): 2 specimens
4 | CC(C)=CCC/C(C)=C/CCc1cccc(Cl)c1 [trans-2,6-dimethyl-9-(3-chlorophenyl)-2,6-nonadiene] | 10 specimens | 10 specimens | 2 specimens |  |  |  | 10 specimens | 10 specimens | 10 specimens | 7 specimens | 7 specimens | 10 specimens | 9 specimens | 1 specimens |  | 10 specimens |  |  |  | 10 specimens | number of specimens in rating 1 ([1]; 10%, rating scale 0-4): 1 specimens; number of specimens in rating 2 ([1]; 10%, rating scale 0-4): 1 specimens; number of specimens in rating 3 ([1]; 10%, rating scale 0-4): 6 specimens; number of specimens in rating 1 ([3]; 1%, rating scale 0-3): 1 specimens; number of specimens in rating 2 ([3]; 1%, rating scale 0-3): 2 specimens; number of specimens in rating 1 ([3]; 10%, rating scale 0-3): 3 specimens
5 | CC(C)=CCC/C(C)=C/CCc1cccc(C)c1 [trans-2,6-dimethyl-9-(3-tolyl)-2,6-nonadiene] | 10 specimens | 9 specimens |  | 10 specimens |  | 5 specimens | 1 specimens | 10 specimens | 10 specimens | 10 specimens | 10 specimens | 9 specimens | 1 specimens | 7 specimens |  | 10 specimens | 10 specimens |  | 2 specimens |  | number of specimens in rating 2 ([1]; 1%, rating scale 0-4): 1 specimens; number of specimens in rating 2 ([4]; 0.5%, rating scale 0-3): 1 specimens; number of specimens in rating 1 ([4]; 1%, rating scale 0-3): 1 specimens; number of specimens in rating 2 ([4]; 1%, rating scale 0-3): 1 specimens
6 | CC(C)=CCC/C(C)=C/CCc1ccc(N(C)C)cc1 [trans-4-(4,8-DIMETHYL-3,7-NONADIENYL)-N,N-DIMETYLANILINE] | 10 specimens | 2 specimens |  | 10 specimens |  | 5 specimens | 2 specimens | 10 specimens | 10 specimens | 10 specimens | 10 specimens | 10 specimens | 9 specimens | 1 specimens |  | 10 specimens | 10 specimens |  | 1 specimens |  | number of specimens in rating 1 ([1]; 1%, rating scale 0-4): 2 specimens; number of specimens in rating 2 ([1]; 1%, rating scale 0-4): 1 specimens; number of specimens in rating 3 ([1]; 1%, rating scale 0-4): 4 specimens; number of specimens in rating 1 ([2]; 1%): 1 specimens
7 | CC(C)=CCC/C(C)=C/CCc1ccc(C#N)cc1 [trans-4-(4,8-DIMETHYL-3,7-NONADIENYL)BENZONITRILE] | 10 specimens | 10 specimens | 9 specimens | 3 specimens | 5 specimens |  | 7 specimens | 10 specimens | 10 specimens | 10 specimens | 10 specimens | 10 specimens | 10 specimens |  | 10 specimens |  | 1 specimens | 1 specimens | 3 specimens | 1 specimens | 
8 | CC(C)=CCC/C(C)=C/CCc1c(Cl)cccc1Cl [trans-9-(2,6-DICHLOROPHENYL)-2,6-DIMETHYL-2,6-NONADIENE] | 10 specimens | 10 specimens | 9 specimens | 10 specimens |  | 8 specimens |  | 10 specimens | 10 specimens | 10 specimens | 10 specimens | 10 specimens | 9 specimens |  | 8 specimens |  |  |  |  |  | number of specimens in rating 1 ([4]; 1%, rating scale 0-3): 1 specimens; number of specimens in rating 1 ([4]; 10%, rating scale 0-3): 2 specimens
9 | CC(C)=CCC/C(C)=C/CCc1ccc(F)cc1 [trans-9-(4-FLUOROPHENYL)-2,6-DIMETHYL-2,6-NONADIENE] | 10 specimens | 10 specimens |  |  |  |  | 8 specimens | 10 specimens | 10 specimens | 9 specimens | 10 specimens |  |  | 10 specimens |  | 10 specimens | 10 specimens | 3 specimens | 2 specimens | 7 specimens | number of specimens in rating 3 ([4]; 0.5%, rating scale 0-3): 10 specimens
